Measured values from US20130058903A1, “Stem-Cell Material and Method of Use” (priority 2009, published 2013).

Columns and labels:
[1] = system: STAT3; assay: Western blot of STAT3 phosphorylation in C2C12 myocytes; format: cell-based; details: C2C12 pretreated 2 hours, then MSC-CM for 30 min
Experimental: FIG. 8: Trophic actions of MSCs stimulate JAK/STAT3 signaling in cultured skeletal myocytes. C2C12 myocytes were plated in 6-well plates (10^5 cells per well). After overnight plating, cells were exposed to the indicated conditioned medium. A: Western blot assays of C2C12 cells exposed to MSC-CM for 5 min, 30 min, 6 hr, and 24 hr. B: In situ immunostaining of control medium- and MSC-CM-treated C2C12 cells (30 min incubation) using a p-STAT3 antibody (red) and β-actin antibody (green). Alexa647- and FITC-conjugated secondary antibodies were used. Nuclei were stained with DAPI. C: Western blot assays comparing the effects of porcine MSC-CM, a human embryonic kidney cell line (HEK293) CM, IL-6, IL-11, and LIF on STAT3 phosphorylation in C2C12 myocytes 30 min after treatment. Fifty ng/ml recombinant proteins were used. D: CT for human MSC IL-6-type cytokines. The CT for the house-keeping gene β2-microglobulin and GAPDH are ˜17 and ˜15, respectively.
FIG. 9: gp130/STAT3 signaling stimulates growth factor expression in cultured skeletal myocytes. C2C12 myocytes were treated with […] of a gp130 antibody (R&D Systems; #AF468) or control IgG for one hour at 37° C. The IgG isotype antibody was used as a negative control. Cells were then briefly rinsed and treated with MSC-CM for 30 min to assess STAT3 activation or 3 days for growth factor production. […]

[2] = system: JAK/STAT3 signaling; assay: Extracardiac MSC therapy with WP1066 (echocardiography, ELISA); format: in vivo, hamster
Experimental: FIG. 14: WP1066 inhibits JAK/STAT3 signaling and abrogates MSC-mediated cardiac repair. […] Cells were pretreated with WP1066 at the indicated dosages for 2 hours, following which cells were stimulated with MSC-CM for 30 min. Western blot assays were performed to determine STAT3 activation. B: The extracardiac MSC therapy was carried out as described previously (54). The four treatment groups (n=5 per group) were: WP1066, drug vehicle (PEG), MSC plus WP1066, and MSC plus drug vehicle (MSC+PEG). qRT-PCR assays of myocardial ANP and BNP expression (n=4 per group) after one month were presented. ANOVA was performed to assess statistical significance. *P<0.05 vs. PEG.
FIG. 15: WP1066 blocks MSC-mediated improvement in cardiac function. Cardiac function was determined by blind-folded echocardiography after MSC administration. A: Representative M-mode recording for the four animal groups at 4 weeks. B: LVEF at 2 and 4 weeks after MSCs. ANOVA was performed to assess statistical significance. *P<0.05 vs. PEG; †P<0.05 vs. WP1066; #P<0.05 vs. pre-injection.
FIG. 16: Inhibition of JAK/STAT3 signaling abolishes MSC-induced tissue growth factor levels. Soluble fractions of total hamstring extracts (panel A) and plasma samples (panel B) were assayed using rodent-specific HGF and VEGF ELISA kits (n=4 per group). Tissue growth factor concentrations were expressed as ng per mg soluble proteins. ANOVA was performed to assess statistical significance. *P<0.05 vs. PEG; †P<0.05 vs. WP1066; #P<0.05 vs. MSC+WP1066.

C[C@H](NC(=O)/C(C#N)=C/c1cccc(Br)n1)c1ccccc1 [WP1066]
STAT3 phosphorylation [1]: Inhibitory effect | MSC-mediated improvement in cardiac function (LVEF) ([2]; 2 and 4 weeks after MSCs): blocks | MSC-induced tissue growth factor levels (HGF, VEGF) ([2]; hamstring extracts and plasma): abolishes | MSC-mediated cardiac repair ([2]; myocardial ANP and BNP expression after one month): abrogates
